Measured values as given in patent publication US11524966B1 (Valo Early Discovery, Inc., priority 2017, dated 2022).

target: T1, USP28 (His-tagged USP28-FL-mammalian) (Homo sapiens, UniProt Q96RU2); test: Ubiquitin-Rhodamine 110 Assay for USP28 Activity, Example A-1(a); type: biochemical; details: Ubiquitin-Rhodamine 110 assay, Example A-1(a); read-out: USP28 A-1(a) IC50 range
T1 construct: Expression of USP28 (1-1077)-TEV-6*His (pTT5 vector); made in house; host or cells: Expi293f cells (pTT5 vector)
T1 sequence (Q96RU2 1-1077): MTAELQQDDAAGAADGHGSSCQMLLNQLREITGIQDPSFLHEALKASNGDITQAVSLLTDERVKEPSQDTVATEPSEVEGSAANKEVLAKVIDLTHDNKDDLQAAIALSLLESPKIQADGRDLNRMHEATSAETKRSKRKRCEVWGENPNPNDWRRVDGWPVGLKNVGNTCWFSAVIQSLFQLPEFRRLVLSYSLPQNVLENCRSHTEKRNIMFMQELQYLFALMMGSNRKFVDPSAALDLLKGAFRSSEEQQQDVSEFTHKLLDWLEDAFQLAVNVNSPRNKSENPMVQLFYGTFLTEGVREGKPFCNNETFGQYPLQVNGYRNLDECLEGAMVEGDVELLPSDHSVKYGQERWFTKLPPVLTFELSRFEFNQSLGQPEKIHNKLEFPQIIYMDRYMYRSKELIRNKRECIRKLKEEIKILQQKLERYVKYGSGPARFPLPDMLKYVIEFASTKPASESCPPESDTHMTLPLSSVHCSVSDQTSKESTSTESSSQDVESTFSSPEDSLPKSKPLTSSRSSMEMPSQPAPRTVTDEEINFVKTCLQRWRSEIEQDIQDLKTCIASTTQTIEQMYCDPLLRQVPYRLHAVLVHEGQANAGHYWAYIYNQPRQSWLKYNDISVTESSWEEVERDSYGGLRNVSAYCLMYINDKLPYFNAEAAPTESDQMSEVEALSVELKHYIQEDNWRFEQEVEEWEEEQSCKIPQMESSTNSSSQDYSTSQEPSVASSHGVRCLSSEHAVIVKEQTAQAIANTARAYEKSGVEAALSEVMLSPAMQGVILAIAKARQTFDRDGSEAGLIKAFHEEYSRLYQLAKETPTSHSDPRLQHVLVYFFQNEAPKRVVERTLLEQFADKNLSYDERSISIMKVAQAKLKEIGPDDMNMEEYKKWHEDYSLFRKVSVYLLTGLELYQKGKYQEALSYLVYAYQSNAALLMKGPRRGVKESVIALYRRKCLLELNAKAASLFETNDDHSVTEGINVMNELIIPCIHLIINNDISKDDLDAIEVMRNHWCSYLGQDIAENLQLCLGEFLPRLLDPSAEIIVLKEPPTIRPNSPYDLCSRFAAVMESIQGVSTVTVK
How it was run: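 IC50 from 4-parameter logistic fit of percent inhibition versus no-enzyme and DMSO controls; compounds 25 μM to 1.3 nM, 3-fold. Ub-Rh110 cleavage (25 nM, below Km) by […] mammalian-expressed USP28-FL-His ran 45 min at room temperature, stopped with 10 mM citric acid, read ex 485/em 535.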

COC[C@H]1CN(c2ccc3c(c2)OC[C@H](NC(=O)c2sc4nc(C)ccc4c2N)C3)C[C@@H]1N [Example 164, 3-amino-N-[(3R)-7-[(3R,4S)-3-amino-4-(methoxymethyl)pyrrolidin-1-yl]-3,4-dihydro-2H-1-benzopyran-3-yl]-6-methylthieno[2,3-b]pyridine-2-carboxamide] and Cc1ccc2c(N)c(C(=O)N[C@H]3COc4cc(N5C[C@H](N)[C@H](C(F)F)C5)ccc4C3)sc2n1 [Example 167, 3-amino-N-[(3R)-7-[(3R,4R)-3-amino-4-(difluoromethyl)pyrrolidin-1-yl]-3,4-dihydro-2H-1-benzopyran-3-yl]-6-methylthieno[2,3-b]pyridine-2-carboxamide] fall in the same range of IC50: 1 to 50 nM for the first, 1 to 50 nM for the second.

Cc1ccc2c(N)c(C(=O)N[C@H]3COc4cc(N5CC[C@@H]6CNC[C@@H]65)ccc4C3)sc2n1 [Example 165, N-[(3R)-7-[(3aR,6aR)-octahydropyrrolo[2,3-c]pyrrol-1-yl]-3,4-dihydro-2H-1-benzopyran-3-yl]-3-amino-6-methylthieno[2,3-b]pyridine-2-carboxamide] and Cc1ccc2c(N)c(C(=O)N[C@H]3COc4cc(N5CC[C@H]6CNC[C@H]65)ccc4C3)sc2n1 [Example 166, N-[(3R)-7-[(3aS,6aS)-octahydropyrrolo[2,3-c]pyrrol-1-yl]-3,4-dihydro-2H-1-benzopyran-3-yl]-3-amino-6-methylthieno[2,3-b]pyridine-2-carboxamide] fall in the same range of IC50: 1 to 50 nM for the first, 1 to 50 nM for the second.

First: Cc1ccc2c(N)c(C(=O)N[C@H]3COc4cc(N5C[C@@H](N)[C@@H](C(F)F)C5)ccc4C3)sc2n1 [Example 168, 3-amino-N-[(3R)-7-[(3S,4S)-3-amino-4-(difluoromethyl)pyrrolidin-1-yl]-3,4-dihydro-2H-1-benzopyran-3-yl]-6-methylthieno[2,3-b]pyridine-2-carboxamide]
Second: Cc1ccc2c(N)c(C(=O)N[C@H]3COc4nc(N5CC6CCC(C5)N6)ccc4C3)sc2n1 [Example 173, 3-amino-N-[(3R)-7-{3,8-diazabicyclo[3.2.1]octan-3-yl]-2H,3H,4H-pyrano[2,3-b]pyridin-3-yl]-6-methylthieno[2,3-b]pyridine-2-carboxamide]
The IC50 of the first is lower: 1 to 50 nM for the first, 50 to 200 nM for the second. The first is the more potent here.

Cc1ccc2c(N)c(C(=O)N[C@H]3COc4cc(N5CCNCC5)cc(F)c4C3)oc2n1 [Example 169, 3-amino-N-[(3R)-5-fluoro-7-(piperazin-1-yl)-3,4-dihydro-2H-1-benzopyran-3-yl]-6-methylfuro[2,3-b]pyridine-2-carboxamide] and Cc1ccc2c(N)c(C(=O)N[C@H]3COc4cc(N5CC6CCC(C5)N6)cc(F)c4C3)oc2n1 [Example 170, 3-amino-N-[(3R)-7-{3,8-diazabicyclo[3.2.1]octan-3-yl}-5-fluoro-3,4-dihydro-2H-1-benzopyran-3-yl]-6-methylfuro[2,3-b]pyridine-2-carboxamide] fall in the same range of IC50: 200 to 2000 nM for the first, 200 to 2000 nM for the second.

First: Cc1ccc2c(N)c(C(=O)N[C@H]3CCc4cc(N5CC6CCC(C5)N6)ccc4C3)oc2n1 [Example 171, 3-amino-N-[(2S)-6-{3,8-diazabicyclo[3.2.1]octan-3-yl]-1,2,3,4-tetrahydronaphthalen-2-yl]-6-methylfuro[2,3-b]pyridine-2-carboxamide]
Second: Cc1ccc2c(N)c(C(=O)N[C@H]3COc4c(F)c(N5CC6CCC(C5)N6)cc(F)c4C3)oc2n1 [Example 172, 3-amino-N-[(3R)-7-{3,8-diazabicyclo[3.2.1]octan-3-yl}-5,8-difluoro-3,4-dihydro-2H-1-benzopyran-3-yl]-6-methylfuro[2,3-b]pyridine-2-carboxamide]
The IC50 of the first is higher: over 2000 nM for the first, 200 to 2000 nM for the second. The second is the more potent here.

First: CO[C@H]1CN(c2cc(F)c3c(c2C#N)OC[C@H](NC(=O)c2sc4nc(C)cnc4c2N)C3)C[C@@H]1N [Example 174, 7-amino-N-[(3R)-7-[(3S,4S)-3-amino-4-methoxypyrrolidin-1-yl]-8-cyano-5-fluoro-3,4-dihydro-2H-1-benzopyran-3-yl]-3-methylthieno[2,3-b]pyrazine-6-carboxamide]
Second: CO[C@H]1CN(c2cc(F)c3c(c2C#N)OC[C@H](NC(=O)c2sc4nc(C)ccc4c2N)C3)C[C@@H]1N [Example 175, 3-amino-N-[(3R)-7-[(3S,4S)-3-amino-4-methoxypyrrolidin-1-yl]-8-cyano-5-fluoro-3,4-dihydro-2H-1-benzopyran-3-yl]-6-methylthieno[2,3-b]pyridine-2-carboxamide]
The IC50 of the first is higher: 200 to 2000 nM for the first, 50 to 200 nM for the second.

In the case of CO[C@H]1CN(c2cc3c(cc2C#N)C[C@@H](NC(=O)c2sc4nc(C)cnc4c2N)CO3)C[C@@H]1N [Example 176, 7-amino-N-[(3R)-7-[(3S,4S)-3-amino-4-methoxypyrrolidin-1-yl]-6-cyano-3,4-dihydro-2H-1-benzopyran-3-yl]-3-methylthieno[2,3-b]pyrazine-6-carboxamide], the IC50 is reported as 1 to 50 nM.
